# Source: PMC10876507, “Chelator impact: investigating the pharmacokinetic behavior of copper-64 labeled PD-L1 radioligands” (EJNMMI Radiopharmacy and Chemistry, 2024)
# “And” between values parts separate entries of the source, which are not always exact repeats. Equal values may be shown once.
# Key:
# [1] = n-octanol/PBS pH 7.4, shake flask
# Protocol: The n-octanol/water distribution coefficients for each radioligand were determined using the shake-flask method. Each experiment was conducted in triplicate. To initiate the experiment, 30 µL of the labeling mixture was combined with 570 µL of PBS (pH 7.4) and 600 µL of n-octanol in a 1.5 mL Eppendorf-Tube. The resulting mixture was shaken at room temperature at 1500 rpm for 5 min before undergoing centrifugation. An aliquot was extracted from each phase, and radioactivity was measured on a γ-counter (ISOMED 2160). Subsequently, mean values were calculated and adjusted for background activity. The log D7.4 value was determined utilizing the equation: logD7.4=logAn-octanol/APBS
# [2] = Proteolytic stability in human serum at 37 °C, radio-HPLC; type: in vitro ADME; conditions: 48 h
# Protocol: For proteolytic stability studies, a solution of the radiolabeled compound was diluted with human serum in a ratio of 1:10. This mixture then underwent incubation at 37 °C while being shaken at 300 rpm. At each designated timepoint (1, 24 and 48 h), an aliquot was withdrawn and added to a detergent solution (water with 20% v/v EtOH, 5% v/v 5 mM aqueous EDTA, 0.5% v/v Triton X-100, 0.1% m/v saponin, 0.05% v/v 0.5 mM aqueous o-phenanthroline) in a ratio of 1:2 for precipitation of serum proteins. The mixture was cooled on ice for 5 min, followed by centrifugation at 12,000 g for 5 min. A minor portion of the resulting supernatant was subjected to analytical radio-HPLC (reversed-phase, Phenomenex Jupiter 300 C-18, 5 µm, 4.6 × 250 mm) with 10–95% acetonitrile (0.1% TFA) in water (0.1% TFA) in a linear gradient over 15 min, 1 mL/min, γ-detection). The assessment and graphical representations were performed using OriginPro® 9.0.
# [3] = tested on: PC3 PD-L1 overexpressing and PD-L1-mock tumors; test: PET imaging in NMRI-nude mice bearing PC3 PD-L1 and PC3 mock tumors; type: in vivo; conditions: for excretion pattern / clearance route in PET: PET 0–25 h p.i.; for SUVmax PC3 PD-L1 tumor / SUVmax PC3 mock tumor / SUVmax kidney / SUVmax liver: tracer only, i.v.
# Protocol: Male athymic NMRI-nude mice (Rj:NMRI-Foxn1nu, Janvier Labs, Le Genest-Saint-Isle, France) aged between 8 to 16 weeks were employed for the study. General anesthesia was induced [~ 10% desflurane (Baxter, Deerfield, IL, USA) in 30 vol% oxygen + air] under controlled warming (37°C), and mice were subcutaneously injected with 3–5 × 10^6 PC3 PD-L1 and PC3 mock cells (in 50 µL PBS + 50 µL Matrigel, Corning, Glendale, CA, USA) into the right and left thigh, respectively. The growth of tumors was systematically monitored three times per week through caliper measurements, and animals with tumor sizes above 7 mm were included in the subsequent experiments.
# PET and X-ray computed tomography (CT) scans were conducted under general anesthesia using a small animal nanoScan PET/CT scanner (Mediso, Budapest, Hungary), capable of imaging four animals simultaneously. CT images served attenuation correction and anatomical referencing. A total of three individual scans were conducted, corresponding to the timeframes of 0–2 h (dynamic reconstruction), 4–5 h, and 24–25 h (one frame reconstruction) after injection.
# The PD-L1 radiotracer candidates (in 300 µL sterile 0.9% NaCl/HEPES buffer, pH 6–7, containing between 7 and 12 MBq, with molar activities exceeding 12 GBq/µmol) were intravenously delivered over 30 s through a catheter in the lateral tail vein. The PET acquisition was initiated simultaneously with the administration.
# The acquired three-dimensional list mode data were sorted and binned within a 400–600 keV energy window, forming […] (15 × 10 s, 5 × 30 s, 5 × 60 s, 4 × 300 s, 3 × 600 s, 3 × 1200 s). Reconstruction of the time frames was accomplished using the Tera-TomoTM 3D algorithm, utilizing a voxel size of 0.4 mm and applying corrections for decay, scatter, and attenuation. The images were subjected to post-processing and analysis using Rover software (ABX GmbH, Radeberg, Germany), and were depicted as maximum intensity projections (MIPs) at the specified timepoints and scaling.
# Three-dimensional volumes of interest were defined using fixed thresholding at 35–40% of the maximal measured intensity. Standardized uptake values (SUV = [MBq detected activity/mL tissue] / [MBq injected activity/g body weight], in mL/g) were then calculated within the selected volumes of interest, encompassing PD-L1 and mock tumors, as well as metabolizing organs.
# PD-L1 [4] = target: T1, PD-L1 (Homo sapiens, UniProt Q9NZQ7); test: Real-time radioligand binding (LigandTracer) on PC3 PD-L1 overexpressing cells, without BSA; parameters: expressed in transfected cells; host or cells: PC3 PD-L1 overexpressing cells
# T1 sequence (Q9NZQ7 19-290): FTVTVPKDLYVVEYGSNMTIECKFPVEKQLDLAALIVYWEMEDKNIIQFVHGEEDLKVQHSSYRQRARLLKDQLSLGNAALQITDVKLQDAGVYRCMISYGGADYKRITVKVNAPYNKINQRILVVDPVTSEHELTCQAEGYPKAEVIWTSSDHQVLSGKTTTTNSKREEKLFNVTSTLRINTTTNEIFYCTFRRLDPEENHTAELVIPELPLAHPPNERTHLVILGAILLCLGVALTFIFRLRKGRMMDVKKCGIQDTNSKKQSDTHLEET
# Protocol: For the saturation binding experiments, cells were detached with 0.05% Trypsin–EDTA (Gibco, USA), and counted (CASY1 cell counter, Schaerfe System, Reutlingen, Germany). Cells were then diluted in medium to ~ 160,000 cells/mL and seeded in 48 well plates (Falcon Multiwell #353078, ThermoFisher, Karlsruhe, Germany) for at least 2 days prior to saturation binding experiments. For real-time radioligand binding, approximately 400,000 cells/mL were seeded into one side of petri dishes (3 mL, Nunclon, # 150350, ThermoFisher Germany) ~ 24 h before the experiments.
# To investigate binding kinetics, including the association rate constant (ka) and dissociation rate constant (kd), as well as the dissociation constant (KD), a real-time assay system (LigandTracer Yellow or LigandTracer White, Ridgeview Instruments AB, Uppsala, Sweden) was utilized. The petri dish contained attached cells in medium (3 mL) on one side, while radioactivity was detected on the opposing side. The petri dish is set upon an inclined base, allowing continuous measurement of alternating portions of the dish for bound radioligand (cells) compared to the background signal (no cells). Binding experiments were carried out at room temperature using CO2-independent medium (Gibco #18045088, ThermoFisher Germany).
# The association phase consisted of incubation with two concentrations (30 and 90 nM, each for 90 min) of our ^64Cu-labeled PD-L1-radioligands, binding to PC3 PD-L1 overexpressing cells. Following this, the incubation medium was replaced with fresh medium, and the dissociation phase was monitored for a minimum of 2 h. […] Data were recorded as decay-corrected counts per second (CPS). Subsequently, binding data were analyzed using TraceDrawer software (version 1.9.2, Ridgeview Instruments AB, Uppsala, Sweden). Traces were imported, potential spikes (instances of sudden CPS increases exceeding 100% of the previous data point) were eliminated, and each trace was normalized to its own baseline (set as 0%) and its maximum value (set as 100%).
# PD-L1 [5] = target: T1, PD-L1; test: Saturation binding assay on human PD-L1 transduced PC3 cells (assay buffer with 2.5% BSA); parameters: expressed in transfected cells; host or cells: PC3 cells transduced with human PD-L1 (PC3-PD-L1)
# [6] = tracer +500 nM respective unlabeled compound, 1-2 hour p.i., mice
# [7] = tracer +500 nM respective unlabeled compound, 4-5 hour p.i., mice
# [8] = tracer +500 nM respective unlabeled compound, 24-25 hour p.i., mice
# [9] = 1-2 hour p.i., mice, listed as [64Cu]Cu-15
# [10] = 1-2 hour p.i., mice, listed as [64Cu]Cu-17
# [11] = 4-5 hour p.i., mice, listed as [64Cu]Cu-17
# [12] = 24-25 hour p.i., mice, listed as [64Cu]Cu-17
structure (smiles),measurement,setting,value
Cc1c(COc2cc(OCc3cncc(S(C)(=O)=O)c3)c(CN[C@@H](CS(=O)(=O)O)C(=O)NCCS(=O)(=O)O)cc2Br)cccc1-c1cccc(OCc2cn(CCCN3CCN(C(=O)[C@H](CS(=O)(=O)O)NC(=O)CN4CCCN5CCN(CCCN(CC(=O)[O-])CC5)CC4)CC3)nn2)c1C.[64Cu+2] [[^64Cu]Cu-15],Log D7.4,[1],–2.11 ± 0.02
same,intact radioligand after incubation in human serum,[2],88%
same,PD-L1 tumor uptake after preinjection of 500 nmol of cold ligand,"[3]; blocking, mice",not significantly reduced
same,excretion pattern / clearance route in PET,[3]; mice,hepatobiliary excretion pattern
same,"SUVmax PC3 PD-L1 tumor, blocking","[3]; tracer +500 nM respective unlabeled compound (injected 5 min prior), 1-2 hour p.i., mice",1.58
same,"SUVmax PC3 mock tumor, blocking",[3]; [6],1.17
same,"SUVmax kidney, blocking",[3]; [6],7.41
same,"SUVmax liver, blocking",[3]; [6],1.49
same,"SUVmax PC3 PD-L1 tumor, blocking",[3]; [7],0.77
same,"SUVmax PC3 mock tumor, blocking",[3]; [7],0.57
same,"SUVmax kidney, blocking",[3]; [7],0.78
same,"SUVmax liver, blocking",[3]; [7],1.82
same,"SUVmax PC3 PD-L1 tumor, blocking",[3]; [8],0.91
same,"SUVmax PC3 mock tumor, blocking",[3]; [8],0.78
same,"SUVmax kidney, blocking",[3]; [8],0.51
same,"SUVmax liver, blocking",[3]; [8],0.78
same,SUVmax PC3 PD-L1 tumor,"[3]; 1-2 hour p.i., mice",1.03 ± 0.23
same,SUVmax PC3 mock tumor,"[3]; 1-2 hour p.i., mice",0.61
same,SUVmax kidney,"[3]; 1-2 hour p.i., mice",3.26 ± 0.98
same,SUVmax liver,"[3]; 1-2 hour p.i., mice",3.80 ± 0.33
same,SUVmax PC3 PD-L1 tumor,[3]; [9],1.03
same,SUVmax kidney,[3]; [9],3.26
same,SUVmax liver,[3]; [9],3.80
same,SUVmax PC3 PD-L1 tumor,"[3]; 4-5 hour p.i., mice",0.66 ± 0.16
same,SUVmax PC3 mock tumor,"[3]; 4-5 hour p.i., mice",0.44
same,SUVmax kidney,"[3]; 4-5 hour p.i., mice",0.68
same,SUVmax liver,"[3]; 4-5 hour p.i., mice",1.41
same,SUVmax PC3 PD-L1 tumor,"[3]; 4-5 hour p.i., mice, listed as [64Cu]Cu-15",0.66
same,SUVmax PC3 PD-L1 tumor,"[3]; 24-25 hour p.i., mice",0.90 ± 0.09
same,SUVmax PC3 mock tumor,"[3]; 24-25 hour p.i., mice",0.76
same,SUVmax kidney,"[3]; 24-25 hour p.i., mice",0.48
same,SUVmax liver,"[3]; 24-25 hour p.i., mice",1.01
same,SUVmax PC3 PD-L1 tumor,"[3]; 24-25 hour p.i., mice, listed as [64Cu]Cu-15",0.90
same,Kd,"PD-L1 [4]; PC3 PD-L1 overexpressing cells, room temperature, without BSA",~20 nM and 19.1 nM
same,ka,"PD-L1 [4]; association rate constant, real-time binding",(5.10 ± 0.55) × 10^3 (M × s)^–1
same,kd,"PD-L1 [4]; dissociation rate constant, real-time binding",(0.96 ± 0.02) × 10^–4 s^–1
same,Kd,"PD-L1 [5]; human PD-L1 transduced PC3 cells, on ice 90 min, PBS + 2.5% w/v BSA",185 nM
same,Bmax,"PD-L1 [5]; saturation binding, pmol/mg protein, PC3 PD-L1 cells",2.58 ± 0.35 pmol/mg
Cc1c(COc2cc(OCc3cncc(S(C)(=O)=O)c3)c(CN[C@@H](CS(=O)(=O)O)C(=O)NCCS(=O)(=O)O)cc2Br)cccc1-c1cccc(OCc2cn(CCCN3CCN(C(=O)[C@H](CS(=O)(=O)O)NC(=O)CCCC(=O)NC45CNCCNCC(NC(=O)CCCC(=O)N[C@@H](CS(=O)(=O)O)C(=O)N6CCN(CCCn7cc(COc8cccc(-c9cccc(COc%10cc(OCc%11cncc(S(C)(=O)=O)c%11)c(CN[C@@H](CS(=O)(=O)O)C(=O)NCCS(=O)(=O)O)cc%10Br)c9C)c8C)nn7)CC6)(CNCCNC4)CNCCNC5)CC3)nn2)c1C.[64Cu+2] [[^64Cu]Cu-17],intact radioligand after incubation in human serum,[2],86%
same,contrast of PD-L1 positive tumor to PD-L1 negative tumor,[3]; 24–25 h p.i.,109%
same,excretion pattern / clearance route in PET,[3]; mice,rather renal than hepatobiliary clearance
same,SUVmax PC3 PD-L1 tumor,"[3]; 1-2 hour p.i., mice",0.49 ± 0.11
same,SUVmax PC3 mock tumor,"[3]; 1-2 hour p.i., mice",0.31
same,SUVmax kidney,"[3]; 1-2 hour p.i., mice",1.32 ± 0.47
same,SUVmax liver,"[3]; 1-2 hour p.i., mice",17.0 ± 1.48
same,SUVmax PC3 PD-L1 tumor,[3]; [10],0.49
same,SUVmax kidney,[3]; [10],1.32
same,SUVmax liver,[3]; [10],17.03
same,SUVmax PC3 PD-L1 tumor,"[3]; 4-5 hour p.i., mice",0.81
same,SUVmax PC3 mock tumor,"[3]; 4-5 hour p.i., mice",0.50
same,SUVmax kidney,"[3]; 4-5 hour p.i., mice",2.18 ± 0.80
same,SUVmax liver,"[3]; 4-5 hour p.i., mice",14.4 ± 1.26
same,SUVmax kidney,[3]; [11],2.18
same,SUVmax liver,[3]; [11],14.35
same,SUVmax PC3 PD-L1 tumor,"[3]; 24-25 hour p.i., mice",2.47 ± 1.04
same,SUVmax PC3 mock tumor,"[3]; 24-25 hour p.i., mice",1.18
same,SUVmax kidney,"[3]; 24-25 hour p.i., mice",2.40 ± 0.60
same,SUVmax liver,"[3]; 24-25 hour p.i., mice",8.62 ± 0.84
same,SUVmax PC3 PD-L1 tumor,[3]; [12],2.47
same,SUVmax kidney,[3]; [12],2.40
same,SUVmax liver,[3]; [12],8.62
